# Test results taken from patent EP4678638A1, “NEW E3 UBIQUITIN LIGASE LIGAND, PROTEIN DEGRADATION AGENT AND USE THEREOF” (priority 2023, dated 2024).
# Test system: H1975
# Assay: CCK-8 proliferation, NCI-H1975 (H1975)
# Assay type: cell-based, Human
# Settings: Homo sapiens, NCI-H1975; CCK-8; 96 hours; read-out: Inhibitory activity (IC50) on tumor cell proliferation, H1975
# Description: The tumor cells used herein were cultured in a cell culture medium listed in table A1 at 37°C in an incubator with 5% CO2. Prior to experimentation, all cell lines used were correctly identified by STR profiling, and tested negative for mycoplasma contamination using a mycoplasma detection kit through routine screenings. Table A1. Tumor cells and cell culture medium used in the present disclosure
# IC50 values of the compounds of the present disclosure (including the compounds in Table 1, and compounds of examples) were measured using the Meilun Cell Counting Kit-8 kit from Dalian Meilun Biotech Co., Ltd. Assay details are as follows: tumor cells were seeded in a 96-well plate at a density listed in Table A2. After 24h, 100 µL of the inoculated cells were treated with 0.5µL of the compounds of the present disclosure (including the compounds in Tables 1 and 2, and compounds of examples) at 10 different successively decreasing concentrations (starting at the highest concentration of 10µM; 5-fold serial dilutions). After the cells were treated with the compounds of the present disclosure for a period of time, the cell viability detection reagent was added to the culture medium for cell viability assessment according to the instructions provided with the CCK-8 kit. […] The growth inhibition of the compounds of the present disclosure on cells was plotted by Prism Graphpad software, and the IC50 values of the compounds of the present disclosure were calculated therefrom. […] Seeding protocol and treatment time for tumor cells
row,Compound,IC50 [µM]
1,"O=C1CCC(Nc2cccc(CN3C[C@H]4C[C@@H]3CN4c3ccc(-c4cc(F)c5c(c4)C(=O)N(C(C(=O)Nc4nccs4)c4ncn6c4CCC6)C5)cc3)c2)C(=O)N1 (stereo partly drawn) [GT-06179, 2-(6,7-dihydro-5H-pyrrolo[1,2-c]imidazol-1-yl)-2-(6-(4-((1R,4R)-5-(3-((2,6-dioxopiperidin-3-yl)amino)benzyl)-2,5-diazabicyclo[2.2.1]heptan-2-yl)phenyl)-4-fluoro-1-oxoisoindolin-2-yl)-N-(thiazol-2-yl)acetamide]",0.01 to 0.05
2,"O=C1CCC(Nc2ncccc2CN2CCN(c3ccc(-c4cc(F)c5c(c4)C(=O)N(C(C(=O)Nc4nccs4)c4ncn6c4CCC6)C5)cc3)CC2)C(=O)N1 (stereo not shown) [GT-07489, 2-(6,7-dihydro-5H-pyrrolo[1,2-c]imidazol-1-yl)-2-(6-(4-(4-((2-((2,6-dioxopiperidin-3-yl)amino)pyridin-3-yl)methyl)piperazin-1-yl)phenyl)-4-fluoro-1-oxoisoindolin-2-yl)-N-(thiazol-2-yl)acetamide]",0.01 to 0.05
3,"CN(Cc1cc(N2CCC(=O)NC2=O)ncc1F)C1CCN(c2ccc(-c3cc(F)c4c(c3)C(=O)N(C(C(=O)Nc3nccs3)c3ncn5c3CCC5)C4)cc2)CC1 (stereo not shown) [GT-07382, 2-(6,7-dihydro-5H-pyrrolo[1,2-c]imidazol-1-yl)-2-(6-(4-(4-(((2-(2,4-dioxotetrahydropyrimidin-1(2H)-yl)-5-fluoropyridin-4-yl)methyl)(methyl)amino)piperidin-1-yl)phenyl)-4-fluoro-1-oxoisoindolin-2-yl)-N-(thiazol-2-yl)acetamide]",0.01 to 0.05
4,"O=C1CCN(c2ccc(CN3C4CCC3CN(c3ccc(-c5cc(F)c6c(c5)C(=O)N(C(C(=O)Nc5nccs5)c5ncn7c5CCC7)C6)cc3)C4)nc2)C(=O)N1 (stereo not shown) [GT-06255, 2-(6,7-dihydro-5H-pyrrolo[1,2-c]imidazol-1-yl)-2-(6-(4-(8-((5-(2,4-dioxotetrahydropyrimidin-1(2H)-yl)pyridin-2-yl)methyl)-3,8-diazabicyclo[3.2.1]octan-3-yl)phenyl)-4-fluoro-1-oxoisoindolin-2-yl)-N-(thiazol-2-yl)acetamide]",0.001 to 0.01

# The remaining lines, values ahead:
row,IC50 [µM],Compound
1,0.001 to 0.01,"O=C1CCN(c2ccc(CN3C[C@H]4C[C@@H]3CN4c3ccc(-c4cc(F)c5c(c4)C(=O)N(C(C(=O)Nc4nccs4)c4ncn6c4CCC6)C5)cc3)cn2)C(=O)N1 (stereo partly drawn) [GT-06191, 2-(6,7-dihydro-5H-pyrrolo[1,2-c]imidazol-1-yl)-2-(6-(4-((1R,4R)-5-((6-(2,4-dioxotetrahydropyrimidin-1(2H)-yl)pyridin-3-yl)methyl)-2,5-diazabicyclo[2.2.1]heptan-2-yl)phenyl)-4-fluoro-1-oxoisoindolin-2-yl)-N-(thiazol-2-yl)acetamide]"
2,0.001 to 0.01,"O=C1CCC(c2ccc(CN3C[C@H]4C[C@@H]3CN4c3ccc(-c4cc(F)c5c(c4)C(=O)N(C(C(=O)Nc4nccs4)c4ncn6c4CCC6)C5)cc3)cc2)C(=O)N1 (stereo partly drawn) [GT-06176, 2-(6,7-dihydro-5H-pyrrolo[1,2-c]imidazol-1-yl)-2-(6-(4-((1R,4R)-5-(4-(2,6-dioxopiperidin-3-yl)benzyl)-2,5-diazabicyclo[2.2.1]heptan-2-yl)phenyl)-4-fluoro-1-oxoisoindolin-2-yl)-N-(thiazol-2-yl)acetamide]"
3,0.001 to 0.01,"O=C1CCN(c2cccc(CN3CCC(N4CCN(c5ccc(-c6cc(F)c7c(c6)C(=O)N(C(C(=O)Nc6nccs6)c6ncn8c6CCC8)C7)cc5)CC4)CC3)c2)C(=O)N1 (stereo not shown) [GT-06328, 2-(6,7-dihydro-5H-pyrrolo[1,2-c]imidazol-1-yl)-2-(6-(4-(4-(1-(3-(2,4-dioxotetrahydropyrimidin-1(2H)-yl)benzyl)piperidin-4-yl)piperazin-1-yl)phenyl)-4-fluoro-1-oxoisoindolin-2-yl)-N-(thiazol-2-yl)acetamide]"
4,0.001 to 0.01,"CN(Cc1cccc(N2CCC(=O)NC2=O)c1)C1CCN(c2ccc(-c3cc(F)c4c(c3)C(=O)N(C(C(=O)Nc3nccs3)c3ncn5c3CCC5)C4)cc2)CC1 (stereo not shown) [GT-05281, 2-(6,7-dihydro-5H-pyrrolo[1,2-c]imidazol-1-yl)-2-(6-(4-(4-((3-(2,4-dioxotetrahydropyrimidin-1(2H)-yl)benzyl)(methyl)amino)piperidin-1-yl)phenyl)-4-fluoro-1-oxoisoindolin-2-yl)-N-(thiazol-2-yl)acetamide]"
5,0.001 to 0.01,"O=C1CCC(c2cncc(CN3CCN(c4ccc(-c5cc(F)c6c(c5)C(=O)N(C(C(=O)Nc5nccs5)c5ncn7c5CCC7)C6)cc4)CC3)c2)C(=O)N1 (stereo not shown) [GT-07472, 2-(6,7-dihydro-5H-pyrrolo[1,2-c]imidazol-1-yl)-2-(6-(4-(4-((5-(2,6-dioxopiperidin-3-yl)pyridin-3-yl)methyl)piperazin-1-yl)phenyl)-4-fluoro-1-oxoisoindolin-2-yl)-N-(thiazol-2-yl)acetamide]"
6,0.001 to 0.01,"O=C1CCN(c2cncc(CN3CCN(c4ccc(-c5cc(F)c6c(c5)C(=O)N(C(C(=O)Nc5nccs5)c5ncn7c5CCC7)C6)cc4)CC3)c2)C(=O)N1 (stereo not shown) [GT-07380, 2-(6,7-dihydro-5H-pyrrolo[1,2-c]imidazol-1-yl)-2-(6-(4-(4-((5-(2,4-dioxotetrahydropyrimidin-1(2H)-yl)pyridin-3-yl)methyl)piperazin-1-yl)phenyl)-4-fluoro-1-oxoisoindolin-2-yl)-N-(thiazol-2-yl)acetamide]"
7,0.001 to 0.01,"CN(Cc1ccc(N2CCC(=O)NC2=O)nc1)C1CCN(c2ccc(-c3cc(F)c4c(c3)C(=O)N(C(C(=O)Nc3nccs3)c3ncn5c3CCC5)C4)cc2)CC1 (stereo not shown) [GT-05283, 2-(6,7-dihydro-5H-pyrrolo[1,2-c]imidazol-1-yl)-2-(6-(4-(4-(((6-(2,4-dioxotetrahydropyrimidin-1(2H)-yl)pyridin-3-yl)methyl)(methyl)amino)piperidin-1-yl)phenyl)-4-fluoro-1-oxoisoindolin-2-yl)-N-(thiazol-2-yl)acetamide]"
8,0.001 to 0.01,"O=C1CCN(c2cc(CN3CCN(c4ccc(-c5cc(F)c6c(c5)C(=O)N(C(C(=O)Nc5nccs5)c5ncn7c5CCC7)C6)cc4)CC3)ccn2)C(=O)N1 (stereo not shown) [GT-07379, 2-(6,7-dihydro-5H-pyrrolo[1,2-c]imidazol-1-yl)-2-(6-(4-(4-((2-(2,4-dioxotetrahydropyrimidin-1(2H)-yl)pyridin-4-yl)methyl)piperazin-1-yl)phenyl)-4-fluoro-1-oxoisoindolin-2-yl)-N-(thiazol-2-yl)acetamide]"

# Target: T1, human Cereblon WT GST-tagged protein (Homo sapiens, UniProt Q96SW2)
# T1 construct: purchased CISBIO 64BDCRBNPEH
# T1 sequence (Q96SW2 whole entry): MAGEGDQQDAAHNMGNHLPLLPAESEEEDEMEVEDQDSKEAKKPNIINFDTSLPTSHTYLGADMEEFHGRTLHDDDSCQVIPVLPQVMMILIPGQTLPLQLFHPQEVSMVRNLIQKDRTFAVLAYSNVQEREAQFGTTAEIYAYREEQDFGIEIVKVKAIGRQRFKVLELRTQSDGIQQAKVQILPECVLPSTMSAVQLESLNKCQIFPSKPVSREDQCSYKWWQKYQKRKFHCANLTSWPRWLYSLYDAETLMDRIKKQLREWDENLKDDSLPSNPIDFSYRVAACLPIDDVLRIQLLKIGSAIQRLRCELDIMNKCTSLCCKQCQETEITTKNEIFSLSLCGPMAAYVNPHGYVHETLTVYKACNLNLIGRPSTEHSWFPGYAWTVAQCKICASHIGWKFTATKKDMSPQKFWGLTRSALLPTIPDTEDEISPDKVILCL
# Assay: CRBN binding, HTRF (CEREBLON BINDING kit)
# Settings: Table II-2, CRBN binding screening, HTRF; at 0.5µM
# Procedure, shortened: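 After 3 h at room temperature, emission at 665 and 620 nm was measured in a homogeneous time-resolved fluorescence format. Compounds competed with a Thalidomide-Re probe for GST-tagged wild-type human CRBN, which was labelled with a Eu anti-GST antibody.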
row,Compound,Inhibition rate (%) at 0.5µM
1,"CC1(C)CCC(c2ccc(Cl)cc2)=C(CN2CCN(c3ccc(C(=O)NS(=O)(=O)c4ccc(N[C@H](CCN5CC6CCC5CN6Cc5ccc(C6CCC(=O)NC6=O)cc5)CSc5ccccc5)c(S(=O)(=O)C(F)(F)F)c4)cc3)CC2)C1 (stereo partly drawn) [GT-07878, 4-(4-((4'-chloro-4,4-dimethyl-3,4,5,6-tetrahydro-[1,1'-biphenyl]-2-yl)methyl)piperazin-1-yl)-N-((4-(((2R)-4-(5-(4-(2,6-dioxopiperidin-3-yl)benzyl)-2,5-diazabicyclo[2.2.2]octan-2-yl)-1-(phenylthio)butan-2-yl)amino)-3-((trifluoromethyl)sulfonyl)phenyl)sulfonyl)benzamide]",a3 (30% < a3 ≤ 40%)

# Same assay, conditions: Table II-2, CRBN binding screening, HTRF; at 0.5µM; read-out: Inhibition rate (%) at 0.5µM
row,inhibition at 0.5 µM [%],Compound
1,40 to 53,"O=C1CCC(c2cncc(CN3CCC(n4cc(NC(=O)c5cnn6ccc(N7C[C@H]8C[C@@H]7CO8)nc56)c(C(F)F)n4)CC3)c2)C(=O)N1 (stereo partly drawn) [GT-07778, 5-((1R,4R)-2-oxa-5-azabicyclo[2.2.1]heptan-5-yl)-N-(3-(difluoromethyl)-1-(1-((5-(2,6-dioxopiperidin-3-yl)pyridin-3-yl)methyl)piperidin-4-yl)-1H-pyrazol-4-yl)pyrazolo[1,5-a]pyrimidine-3-carboxamide]"

# Same assay, conditions: Table II-2, CRBN binding screening, HTRF; at 2 µM
row,Compound,Inhibition rate (%) at 2 µM
1,"CC1(C)CCC(c2ccc(Cl)cc2)=C(CN2CCN(c3ccc(C(=O)NS(=O)(=O)c4ccc(N[C@H](CCN5CC6CCC5CN6Cc5ccc(C6CCC(=O)NC6=O)cc5)CSc5ccccc5)c(S(=O)(=O)C(F)(F)F)c4)cc3)CC2)C1 (stereo partly drawn) [GT-07878, 4-(4-((4'-chloro-4,4-dimethyl-3,4,5,6-tetrahydro-[1,1'-biphenyl]-2-yl)methyl)piperazin-1-yl)-N-((4-(((2R)-4-(5-(4-(2,6-dioxopiperidin-3-yl)benzyl)-2,5-diazabicyclo[2.2.2]octan-2-yl)-1-(phenylthio)butan-2-yl)amino)-3-((trifluoromethyl)sulfonyl)phenyl)sulfonyl)benzamide]",a5 (53% < a5 ≤ 60%)

# Same assay, conditions: Table II-2, CRBN binding screening, HTRF; at 2 µM; read-out: Inhibition rate (%) at 2 µM
row,inhibition at 2 µM [%],Compound
1,80 to 100,"O=C1CCC(c2cncc(CN3CCC(n4cc(NC(=O)c5cnn6ccc(N7C[C@H]8C[C@@H]7CO8)nc56)c(C(F)F)n4)CC3)c2)C(=O)N1 (stereo partly drawn) [GT-07778, 5-((1R,4R)-2-oxa-5-azabicyclo[2.2.1]heptan-5-yl)-N-(3-(difluoromethyl)-1-(1-((5-(2,6-dioxopiperidin-3-yl)pyridin-3-yl)methyl)piperidin-4-yl)-1H-pyrazol-4-yl)pyrazolo[1,5-a]pyrimidine-3-carboxamide]"
